This is an account of results in patent US20260083704A1, “LXR MODULATORS WITH BICYCLIC CORE MOIETY FOR TREATING DYSLIPIDEMIAS” (OrsoBio, Inc., priority 2022, published 2026).

The structures appear in SMILES notation.

The target of one test is T1, LXRβ (Homo sapiens, UniProt P55055).
T1 sequence (P55055 1-460): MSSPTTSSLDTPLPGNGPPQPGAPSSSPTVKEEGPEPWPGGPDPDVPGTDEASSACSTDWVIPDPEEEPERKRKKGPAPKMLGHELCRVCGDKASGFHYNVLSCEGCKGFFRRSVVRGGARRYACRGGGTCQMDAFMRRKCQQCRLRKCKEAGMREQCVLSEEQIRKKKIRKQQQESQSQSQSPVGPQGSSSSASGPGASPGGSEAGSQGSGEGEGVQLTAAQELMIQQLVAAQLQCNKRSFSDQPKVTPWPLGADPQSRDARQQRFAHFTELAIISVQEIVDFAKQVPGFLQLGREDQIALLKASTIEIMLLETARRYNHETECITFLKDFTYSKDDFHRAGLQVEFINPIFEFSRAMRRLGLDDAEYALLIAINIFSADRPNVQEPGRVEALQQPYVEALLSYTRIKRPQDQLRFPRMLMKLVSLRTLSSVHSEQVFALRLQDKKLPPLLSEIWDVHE
The test can be described thus: LXR Gal4 reporter transient transfection assay (mammalian two-hybrid, HEK293), LXRβ. In kind it is cell-based. More on the design: LXRβ (amino acids 156-461); expressed in transfected cells; host or cells: HEK293. Conditions: full length (FL) LXRβ, HEK293; read-out: FL-M2H Gal4β. On the procedure: LXRα and LXRβ activity status was determined via detection of interaction with coactivator and corepressor proteins in mammalian two-hybrid experiments (M2H). For this, via transient transfection the full length (FL) proteins of LXRα (amino acids 1-447; NP005684; SEQ ID NO:1) or LXRβ-(amino acids 1-461; NP009052; SEQ ID NO:2) or the ligand-binding domains (LBD) of LXRα (amino acids 155-447 SEQ ID NO:3) or LXRβ (amino acids 156-461; SEQ ID NO:4) were expressed from pCMV-AD (Stratagene) as fusions to the transcriptional activation domain of NFkB. As cofactors, domains of either the steroid receptor coactivator 1 (SRC1; amino acids 552-887; SEQ ID NO:5) or of the corepressor NCoR (amino acids 1906-2312; NP006302; SEQ ID NO:6) were expressed as fusions to the DNA binding domain of the yeast transcription factor GAL4 (from pCMV-BD; Stratagene). Interaction was monitored via activation of a coexpressed Firefly Luciferase Reporter gene under control of a promoter containing repetitive GAL4 response elements (vector pFRLuc; Stratagene). Transfection efficiency was controlled via cotransfection of constitutively active pRL-CMV Renilla reniformis luciferase reporter (Promega). HEK293 cells were grown in minimum essential medium (MEM) with 2 mM L-glutamine and Earle's balanced salt solution supplemented with 8.3% fetal bovine serum, 0.1 mM non-essential amino acids, 1 mM sodium pyruvate, at 37° C. in 5% CO2. 3.5×10^4 cells/well were plated in 96-well cell culture plates in growth medium supplemented with 8.3% fetal bovine serum for 16-20 h to ˜90% confluency. For transfection, medium was taken off and LXR and cofactor expressing plasmids as well as the reporter plasmids are added in 30 μL OPTIMEM/well including polyethylene-imine (PEI) as vehicle. Typical amounts of plasmids transfected/well: pCMV-AD-LXR (5 ng), pCMV-BD-cofactor (5 ng), pFR-Luc (100 ng), pRL-CMV (0.5 ng). Compound stocks were prepared in DMSO, prediluted in MEM to a total volume of 120 μL, and added 4 h after addition of the transfection mixture (final vehicle concentration not exceeding 0.2%). Cells were incubated for additional 16 h, lysed for 10 min in 1×Passive Lysis Buffer (Promega) and Firefly and Renilla luciferase activities were measured sequentially in the same cell extract using buffers containing D-luciferine and coelenterazine, respectively. Measurements of luminescence were done in a BMG-luminometer.
The potencies of Compound 21/3 and its analog, Compound pre-6/3, against LXRα and LXRβ were evaluated in biochemical binding assays, cellular mammalian two-hybrid (M2H) interaction assays evaluating nuclear receptor co-repressor (NCOR) recruitment, and cellular reporter assays evaluating transcriptional activity (Table 5).

Test [1] deals with T2, GST-LXRβ ligand-binding domain (Homo sapiens, UniProt P55055).
T2 construct: amino acids 156-461; NP009052; made in house; host or cells: E. coli
T2 sequence (P55055 156-460 limits assumed): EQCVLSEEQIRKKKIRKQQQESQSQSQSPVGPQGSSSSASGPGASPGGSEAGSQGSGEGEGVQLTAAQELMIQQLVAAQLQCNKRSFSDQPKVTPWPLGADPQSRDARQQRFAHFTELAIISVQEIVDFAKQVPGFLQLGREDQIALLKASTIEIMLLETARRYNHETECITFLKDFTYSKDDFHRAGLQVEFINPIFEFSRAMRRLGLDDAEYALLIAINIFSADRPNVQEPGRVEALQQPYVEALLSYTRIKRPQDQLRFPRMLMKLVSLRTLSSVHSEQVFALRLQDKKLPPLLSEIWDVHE
The test can be described thus: TR-FRETβ activity assay (NCoA3 coactivator peptide recruitment). It counts as biochemical. Conditions: 1 μM 24(S)-25-epoxycholesterol prestimulation. On the procedure:
Recombinant GST-LXRβ ligand-binding domain (LBD; amino acids 156-461; NP009052; SEQ ID NO:4) was expressed in E. coli and purified via gluthatione-sepharose affinity chromatography. N-terminally biotinylated NCoA3 coactivator peptide (SEQ ID NO:7) was chemically synthesized (Eurogentec). Assays were done in 384 well format (final assay volume of 25 μL/well) in a Tris/HCl buffer (pH 6.8) containing KCl, bovine serum albumin, Triton-X-100 and 1 μM 24(S)-25-epoxycholesterol as LXR-prestimulating agonist. Assay buffer was provided and test articles (potential LXR inverse agonists) were titrated to yield final assay concentrations of 50 μM, 16.7 μM, 5.6 μM, 1.9 μM, 0.6 μM, 0.2 μM, 0.07 μM, 0.02 μM, 0.007 μM, 0.002 μM with one vehicle control. Finally, a detection mix was added containing anti GST-Tb cryptate (CisBio; 610SAXLB) and Streptavidin-XL665 (CisBio; 610SAXLB) as fluorescent donor and acceptor, respectively, as well as the coactivator peptide and LXRβ-LBD protein (SEQ ID NO:4). The reaction was mixed thoroughly, equilibrated for 1 h at 4° C. and vicinity of LXRβ and coactivator peptide was detected by measurement of fluorescence in a VictorX4 multiplate reader (PerkinElmer Life Science) using 340 nm as excitation and 615 and 665 nm as emission wavelengths. Assays were performed in triplicates.
240 mM KCl, 1 μg/μL BSA, 0.002% Triton-X-100, […] anti GST-Tb cryptate, 2.5 ng/μL Streptavidin-XL665, coactivator peptide (400 nM), LXRβ protein (530 μg/mL, i.e. 76 nM).

As for `Cc1ccc(S(=O)(=O)n2c(-c3cccc(-c4ccc(C(=O)O)cc4Cl)c3)c(-c3cccc(F)c3C#N)c3cc(F)ccc32)cc1` [11/1], the EC50 (at LXRβ; in test [1]) was less than 100 nM throughout.
As to `COc1sccc1-c1c(-c2cccc(N3CC(C(=O)O)C3)c2)n(S(=O)(=O)c2ccc(C)cc2)c2ccc(F)cc12` [3/3], the figures for the EC50 (at LXRβ; in test [1]) were 100 to 1000 nM and 1000 to 10000 nM, respectively.
Consider `O=C(O)c1ccc(-c2cccc(-c3c(-c4ccccc4C4COC4)c4cc(F)ccc4n3S(=O)(=O)c3ccc(Cl)cc3)c2)c(Cl)c1` [3/56], for which the EC50 (at LXRβ; in test [1]) was less than 100 nM in each case.
For `Cc1ccc(S(=O)(=O)n2c(-c3cccc(N4CC(C(=O)O)C4)c3)c(-c3ccsc3C#N)c3cc(C#N)ccc32)cc1` [3/45], the EC50 at LXRβ is 100 to 1000 nM; in test [1], 1000 to 10000 nM.
For `O=C(O)c1ccc(-c2cccc(-c3c(-c4cn[nH]c4C(F)(F)F)c4cc(F)ccc4n3S(=O)(=O)c3ccc(C(F)F)cc3)c2)c(Cl)c1` [11/25], the EC50 is less than 100 nM on LXRβ and 100 to 1000 nM in test [1].
On to `Cc1ccc(S(=O)(=O)n2c(-c3cccc(-c4cc(C(=O)O)nn4C)c3)c(-c3ccsc3C#N)c3cc(F)ccc32)cc1` [12/7], for which the EC50 (on LXRβ; in test [1]) was 100 to 1000 nM in each case.
`CN1CC(F)(c2ccccc2-c2c(-c3cccc(-c4ccc(C(=O)O)cc4Cl)c3)n(S(=O)(=O)c3ccc(C(F)F)cc3)c3ccc(F)cc23)C1` [3/62]: the results for the EC50 (on LXRβ; in test [1]) were less than 100 nM and 100 to 1000 nM, respectively.
On to `Cc1ccc(S(=O)(=O)n2c(-c3cccc(-c4ccc(CN(C)C)cc4)c3)c(-c3ccsc3C#N)c3cc(F)ccc32)cc1` [8/1], for which the EC50 was less than 100 nM at LXRβ and 100 to 1000 nM in test [1].
As for `N#Cc1sccc1-c1c(-c2cccc(-c3cc(F)c(C(=O)O)cc3Cl)c2)n(S(=O)(=O)c2ccc(C(F)F)cc2)c2ccc(F)cc12` [11/8], the EC50 (at LXRβ; in test [1]) was less than 100 nM throughout.
With `Cc1ccc(S(=O)(=O)n2c(-c3cccc(N4CC(C(=O)O)C4)c3)c(-c3ccsc3C(=O)N(C)C)c3cc(F)ccc32)cc1` [3/28], the results for the EC50 (at LXRβ; in test [1]) were 1000 to 10000 nM and more than 10000 nM, respectively.
`Cc1ccc(S(=O)(=O)n2c(-c3cccc(-c4cc(F)c(CO)c(S(C)(=O)=O)c4)c3)c(-c3ccsc3C#N)c3cc(F)ccc32)cc1` [2/16]: the EC50 (on LXRβ; in test [1]) was less than 100 nM throughout.
Take `CC(O)(C(=O)O)c1cc(F)c(-c2cccc(-c3c(-c4c(C#N)cccc4C#N)c4cc(F)ccc4n3S(=O)(=O)c3ccc(C(F)F)cc3)c2)c(F)c1` (stereo not shown) [3/72]: the EC50 (on LXRβ; in test [1]) was less than 100 nM in each case.
Regarding `Cc1ccc(S(=O)(=O)n2c(-c3cccc(-c4ccc(C(=O)O)c(Cl)c4)c3)c(-c3ccsc3C#N)c3cc(F)ccc32)cc1` [3/49], the EC50 on LXRβ is less than 100 nM; in test [1], 100 to 1000 nM.
`Cc1ccc(S(=O)(=O)n2c(-c3cccc(N4CC(C(=O)NC(C)(C)C(=O)O)C4)c3)c(-c3ccsc3C#N)c3cc(F)ccc32)cc1` [3/52]: the EC50 (on LXRβ; in test [1]) was 100 to 1000 nM throughout.
Turning to `Cc1ccc(S(=O)(=O)n2c(-c3cccc(-c4ccc(C(=O)O)cc4Cl)c3)c(-c3ccsc3C#N)c3cc(F)ccc32)cc1F` [11/19], the EC50 on LXRβ is less than 100 nM; in test [1], 100 to 1000 nM.
As for `N#Cc1cccc(C#N)c1-c1c(-c2cccc(-c3ccc(C(=O)O)cc3Cl)c2)n(S(=O)(=O)c2ccc(C(F)F)cc2)c2ccccc12` [11/56], the EC50 (on LXRβ; in test [1]) was less than 100 nM throughout.
As for `Cc1ccc(S(=O)(=O)n2c(-c3cccc(N4CC(C(=O)O)C4)c3)c(-c3ccoc3C#N)c3cc(F)ccc32)cc1` [3/26], the EC50 on LXRβ is less than 100 nM; in test [1] it was 1000 to 10000 nM.
As to `CC1CCN(S(=O)(=O)n2c(-c3cccc(N4CC(C(=O)O)C4)c3)c(-c3ccsc3C#N)c3cc(F)ccc32)CC1` [3/36], the EC50 on LXRβ is 100 to 1000 nM; in test [1] it was 1000 to 10000 nM.
For the compound `N#Cc1sccc1-c1c(-c2cccc(-c3ccc(C(=O)O)cc3Cl)c2)n(S(=O)(=O)c2ccc(F)cc2)c2ccc(F)cc12` [11/18], the EC50 on LXRβ is less than 100 nM; in test [1], 100 to 1000 nM.
As for `Cc1ccc(S(=O)(=O)n2c(-c3cccc(C4CC4C(=O)O)c3)c(-c3ccsc3C#N)c3ccncc32)cc1` (stereo not shown) [4/1], the values for the EC50 (at LXRβ; in test [1]) were less than 100 nM and 1000 to 10000 nM, respectively.
In the case of `N#Cc1cccc(C#N)c1-c1c(-c2cccc(-c3ccc(C(=O)O)cc3Cl)c2)n(S(=O)(=O)c2ccc(C(F)F)cc2)c2cnc(O)cc12` [3/70], the EC50 (at LXRβ; in test [1]) was 100 to 1000 nM each time.
Consider `O=C(O)c1ccc(-c2cccc(-c3c(-c4ccccc4C4COC4)c4cnccc4n3S(=O)(=O)c3ccc(C(F)F)cc3)c2)c(Cl)c1` [8/3], for which the EC50 at LXRβ is less than 100 nM; in test [1] it was 100 to 1000 nM.
In the same order, the values of `N#Cc1sccc1-c1c(-c2cccc(N3CCC(C(=O)O)CC3)c2)n(S(=O)(=O)c2ccc(C(F)F)cc2)c2ccc(F)cc12` [3/60] are less than 100 nM and 100 to 1000 nM.
As for `Cc1ccc(S(=O)(=O)n2c(-c3cc(N4CC(C(=O)O)C4)ccc3F)c(-c3ccsc3C#N)c3cc(F)ccc32)cc1` [3/41], the EC50 on LXRβ was less than 100 nM; in test [1] it was 1000 to 10000 nM.
For the compound `N#Cc1ccccc1-c1c(-c2cccc(-c3ccc(C(=O)O)cc3F)c2)n(S(=O)(=O)c2ccc(C(F)F)cc2)c2ccc(F)cc12` [11/31], the EC50 (on LXRβ; in test [1]) was less than 100 nM each time.
In the case of `COc1c(C(=O)O)ccc(-c2cccc(-c3c(-c4ccsc4C#N)c4cc(F)ccc4n3S(=O)(=O)c3ccc(C)cc3)c2)c1Cl` [12/5], the EC50 (on LXRβ; in test [1]) was less than 100 nM throughout.
